Test results as given in PubChem BioAssay (NCI).
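How tested: cells in 96-well plates exposed to compound for 48 hours at five concentrations. GI50 is the concentration that inhibits growth by half. TGI denotes the concentration required for complete inhibition of growth.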

What was measured:
Assay in all cases: DTP human tumour cell line panel, 48 h
ACHN renal = test system: ACHN renal
LOX IMVI melanoma = test system: LOX IMVI melanoma
NCI-H226 lung = test system: NCI-H226 lung
IGROV1 ovarian = test system: IGROV1 ovarian
EKVX NSCLC = test system: EKVX NSCLC
OVCAR-8 ovarian = test system: OVCAR-8 ovarian
U251 CNS = test system: U251 CNS
SR leukemia = test system: SR leukemia
DU-145 prostate = test system: DU-145 prostate
T-47D breast = test system: T-47D breast

For `COC1(OC)CCC2(C)OC(c3ccccc3)C1O2` (stereo not drawn), the TGI (ACHN renal) was over 100 µM, the TGI (LOX IMVI melanoma) was over 100 µM and the TGI (NCI-H226 lung) was over 100 µM. The TGI (IGROV1 ovarian) was over 100 µM, the TGI (EKVX NSCLC) was over 100 µM and the TGI (OVCAR-8 ovarian) was over 100 µM. The TGI (U251 CNS) was over 100 µM and the TGI (SR leukemia) was over 100 µM.
`C=C1C2CCCC1C1(S(C)(=O)=O)CCCCC21O` (stereo not drawn) showed a TGI (ACHN renal) of over 100 µM, a TGI (NCI-H226 lung) of over 100 µM and a TGI (IGROV1 ovarian) of over 100 µM. It also gave a TGI (EKVX NSCLC) of over 100 µM, a TGI (OVCAR-8 ovarian) of over 100 µM and a TGI (U251 CNS) of over 100 µM. For the same compound, the TGI (SR leukemia) was over 100 µM.
In the case of `O=C(CC(=O)N1N=C(n2ccc3ccccc32)CC1c1ccccc1)Nc1ccccc1Cl` (stereo not drawn), the TGI (ACHN renal) is reported as over 100 µM, the TGI (LOX IMVI melanoma) is reported as over 100 µM and the TGI (IGROV1 ovarian) is reported as over 100 µM. It also gave a TGI (EKVX NSCLC) of over 100 µM, a TGI (OVCAR-8 ovarian) of over 100 µM and a TGI (U251 CNS) of over 100 µM.
`CC1CN1c1c(C(=O)/C=C/c2ccc(F)cc2)c(-c2ccccc2)nn(C)c1=O` (stereo not drawn) showed a TGI (ACHN renal) of 36.3 µM, a TGI (LOX IMVI melanoma) of 26.9 µM and a TGI (NCI-H226 lung) of 25.3 µM. It also gave a TGI (IGROV1 ovarian) of 40.2 µM, a TGI (EKVX NSCLC) of 33.4 µM and a TGI (OVCAR-8 ovarian) of 27.6 µM. For the same compound, the TGI (U251 CNS) was 28.9 µM.
`Cc1cc(NS(=O)(=O)c2ccc(NC(=O)c3cccc4c(Nc5ccc(S(=O)(=O)Nc6cc(C)on6)cc5)c5ccc(Cl)cc5nc34)cc2)no1` gave a TGI (ACHN renal) of over 100 µM, a TGI (LOX IMVI melanoma) of over 100 µM and a TGI (IGROV1 ovarian) of over 100 µM. For the same compound, the TGI (EKVX NSCLC) was over 100 µM, the TGI (OVCAR-8 ovarian) was over 100 µM and the TGI (U251 CNS) was over 100 µM.
Work on `CS(=O)(=O)ON1C(=O)c2ccc(N)cc2C1=O` yielded a TGI (ACHN renal) of over 100 µM, a TGI (LOX IMVI melanoma) of over 100 µM and a TGI (NCI-H226 lung) of over 100 µM. It also gave a TGI (IGROV1 ovarian) of over 100 µM, a TGI (EKVX NSCLC) of over 100 µM and a TGI (OVCAR-8 ovarian) of 60.8 µM. For the same compound, the TGI (U251 CNS) was over 100 µM and the TGI (SR leukemia) was over 68.8 µM.
For `O=C1CCC2(c3ccccc3)OCC([C@@H](O)c3ccccc3)N12` (stereo partly drawn), the TGI (ACHN renal) was over 100 µM, the TGI (LOX IMVI melanoma) was over 100 µM and the TGI (IGROV1 ovarian) was over 100 µM. The TGI (EKVX NSCLC) was over 100 µM, the TGI (OVCAR-8 ovarian) was over 100 µM and the TGI (U251 CNS) was over 100 µM. The TGI (SR leukemia) was over 100 µM.
`Cc1ccc2c(-c3ccnc(Nc4cccc(C(F)(F)F)c4)n3)c(-c3ccccc3)nn2n1` was tested, and the GI50 (ACHN renal) was 1.97 µM, the TGI (ACHN renal) was over 25 µM and the GI50 (LOX IMVI melanoma) was 4.92 µM. For the same compound, the TGI (LOX IMVI melanoma) was over 17.2 µM, the GI50 (NCI-H226 lung) was 6.01 µM and the TGI (NCI-H226 lung) was 17 µM. The GI50 (DU-145 prostate) was 12.3 µM, the TGI (DU-145 prostate) was 24.4 µM and the GI50 (T-47D breast) was 6.95 µM. The TGI (T-47D breast) was over 23.7 µM, the GI50 (IGROV1 ovarian) was 2.1 µM and the TGI (IGROV1 ovarian) was 24.4 µM. The GI50 (EKVX NSCLC) was 10.5 µM, the TGI (EKVX NSCLC) was over 25 µM and the GI50 (OVCAR-8 ovarian) was 9.27 µM. For the same compound, the TGI (OVCAR-8 ovarian) was over 25 µM, the GI50 (U251 CNS) was 10.3 µM and the TGI (U251 CNS) was over 25 µM.
`COc1cc2c3c(n(CCCNCCCCN)c(=O)c2cc1OC)-c1cc2c(cc1C3=O)OCO2` showed a GI50 (ACHN renal) of 0.163 µM, a TGI (ACHN renal) of 16.6 µM and a GI50 (LOX IMVI melanoma) of 0.226 µM. For the same compound, the TGI (LOX IMVI melanoma) was 10.1 µM, the GI50 (NCI-H226 lung) was 1.6 µM and the TGI (NCI-H226 lung) was 7.44 µM. It also gave a GI50 (DU-145 prostate) of 0.0764 µM, a TGI (DU-145 prostate) of 5.16 µM and a GI50 (T-47D breast) of 3.11 µM. The TGI (T-47D breast) was 27.1 µM, the GI50 (IGROV1 ovarian) was over 21.2 µM and the TGI (IGROV1 ovarian) was over 100 µM. The GI50 (EKVX NSCLC) was 18.6 µM, the TGI (EKVX NSCLC) was 42.7 µM and the GI50 (OVCAR-8 ovarian) was 1.91 µM. For the same compound, the TGI (OVCAR-8 ovarian) was 8.6 µM, the GI50 (U251 CNS) was 0.234 µM and the TGI (U251 CNS) was 6.54 µM.
With `N#C/C(=C\c1ccc(O)c(O)c1)C(=O)NCc1cccc(C(F)(F)F)c1` the GI50 (ACHN renal) was 5.53 µM, the TGI (ACHN renal) was 35.2 µM and the GI50 (LOX IMVI melanoma) was 11.4 µM. It also gave a TGI (LOX IMVI melanoma) of 26.4 µM, a GI50 (DU-145 prostate) of 12.1 µM and a TGI (DU-145 prostate) of 50.9 µM. It also gave a GI50 (T-47D breast) of 13.3 µM, a TGI (T-47D breast) of 84.5 µM and a GI50 (EKVX NSCLC) of 13.7 µM. For the same compound, the TGI (EKVX NSCLC) was 39.8 µM, the GI50 (OVCAR-8 ovarian) was 10.2 µM and the TGI (OVCAR-8 ovarian) was 62.2 µM. For the same compound, the GI50 (U251 CNS) was 6.22 µM and the TGI (U251 CNS) was 38.4 µM.
`COc1c(CC(C)=O)c2ccccc2n1C(C)=O` gave a TGI (ACHN renal) of over 100 µM, a TGI (IGROV1 ovarian) of over 100 µM and a TGI (EKVX NSCLC) of over 100 µM. For the same compound, the TGI (OVCAR-8 ovarian) was over 100 µM, the TGI (U251 CNS) was over 100 µM and the TGI (SR leukemia) was over 100 µM.
Work on `O=c1[nH]c(-c2ccccc2)nc2cc([N+](=O)[O-])c(/C(Cl)=C/c3ccccc3)cc12` yielded a TGI (ACHN renal) of over 100 µM, a TGI (NCI-H226 lung) of over 100 µM and a TGI (IGROV1 ovarian) of over 100 µM. It also gave a TGI (EKVX NSCLC) of over 100 µM, a TGI (OVCAR-8 ovarian) of 45.4 µM and a TGI (U251 CNS) of over 100 µM. It also gave a TGI (SR leukemia) of over 100 µM.
Work on `Cc1[nH]c2ccccc2c1/C=C/c1c(C)[nH]c2ccccc12` yielded a TGI (ACHN renal) of over 100 µM, a TGI (NCI-H226 lung) of over 100 µM and a TGI (IGROV1 ovarian) of over 100 µM. The TGI (EKVX NSCLC) was over 100 µM, the TGI (OVCAR-8 ovarian) was over 100 µM and the TGI (U251 CNS) was over 100 µM.
Compound `CCP(C)(=O)CC` has a TGI (ACHN renal) of over 100 µM, a TGI (LOX IMVI melanoma) of over 100 µM and a TGI (NCI-H226 lung) of over 100 µM. It also gave a TGI (IGROV1 ovarian) of over 100 µM, a TGI (EKVX NSCLC) of over 100 µM and a TGI (OVCAR-8 ovarian) of over 100 µM. For the same compound, the TGI (U251 CNS) was over 100 µM and the TGI (SR leukemia) was over 100 µM.
With `CC(C)(C)c1cc(Cc2ccc(S(C)(=O)=O)cc2)c(O)c(C(C)(C)C)c1` the TGI (ACHN renal) was 26.6 µM, the TGI (LOX IMVI melanoma) was 27.7 µM and the TGI (IGROV1 ovarian) was 28.3 µM. It also gave a TGI (EKVX NSCLC) of 28.4 µM, a TGI (OVCAR-8 ovarian) of 28.1 µM and a TGI (U251 CNS) of 28.7 µM. It also gave a TGI (SR leukemia) of 29.5 µM.
`CC(=O)NNc1nc(C)c(C(=O)/C=C/c2ccc(N(C)C)cc2)s1` showed a TGI (ACHN renal) of over 100 µM, a TGI (LOX IMVI melanoma) of over 100 µM and a TGI (NCI-H226 lung) of over 100 µM. The TGI (IGROV1 ovarian) was over 100 µM, the TGI (EKVX NSCLC) was over 100 µM and the TGI (OVCAR-8 ovarian) was over 100 µM. It also gave a TGI (U251 CNS) of over 100 µM.
With `CN(C)CC1CCCC/C1=N\OC(=O)c1ccccc1` (stereo not drawn) the TGI (ACHN renal) was over 100 µM, the TGI (LOX IMVI melanoma) was over 100 µM and the TGI (NCI-H226 lung) was over 100 µM. It also gave a TGI (IGROV1 ovarian) of over 100 µM, a TGI (EKVX NSCLC) of over 100 µM and a TGI (OVCAR-8 ovarian) of over 100 µM. The TGI (U251 CNS) was over 100 µM and the TGI (SR leukemia) was over 100 µM.
